The nature of this series: photoluminescence quantum yield (fraction); solvent given as SMILES.

In the case of `CCCCCCOc1ccc(C#Cc2ccc(-c3ccc(-c4ccc(C#Cc5ccc(OCCCCCC)c(OCCCCCC)c5)s4)c4nsnc34)s2)cc1OCCCCCC`, the photoluminescence quantum yield was 0.54 (in C1CCCCC1); 0.46 (in CCOC(C)=O); 0.24 (in CN(C)C=O); 0.48 (in COc1ccccc1); 0.55 (in Cc1ccccc1); 0.43 (in ClC(Cl)Cl). Also, the photoluminescence quantum yield reads like this: (in ClCCCl) 0.34; (in ClCCl) 0.35.

As to `COc1ccc(C#Cc2ccc3nc4ccc(C#Cc5ccc(OC)cc5)cn4c(=O)c3c2)cc1`, where the note is “in ClCCl”, the photoluminescence quantum yield was found to be 0.52.

Where the note is “in CS(C)=O”, `Brc1ccc(-c2nc(-c3ccc(-c4nc(-c5ccc(Br)cc5)c(-c5ccc(Br)cc5)[nH]4)cc3)[nH]c2-c2ccc(Br)cc2)cc1` had a photoluminescence quantum yield of 0.49.

`Cc1cn2cc(-c3ccccc3)[n-][n+]2c1` yielded a photoluminescence quantum yield (in ClCCl) of 0.074.

With `COC(=O)c1ccccc1-c1c2ccc(=[NH2+])cc-2oc2cc(N)ccc12`, the photoluminescence quantum yield came to 1 (in CC#N), 0.88 (in CCO), 0.74 (in CN(C)C=O) and 0.89 (in O).

For `CCN(CC)c1ccc2cc3c([o+]c2c1)/C(=C/Nc1ccccc1)CCC3`, the photoluminescence quantum yield was determined as 0.18 (in CCO), 0.22 (in ClC(Cl)Cl) and 0.31 (in ClCCl).

As to `CCN(CC)c1ccc2cc(/C=C/C(O)=C/C(C)=O)c(=O)oc2c1`, the photoluminescence quantum yield came out at 0.36 (in CC#N); 0.46 (in CC(C)=O); 0.5 (in CCOC(C)=O); 0.35 (in CO); 0.39 (in CS(C)=O); 0.66 (in Cc1ccccc1). The photoluminescence quantum yield by setting is: (in ClC(Cl)Cl) 0.53; (in ClCCl) 0.52.

In turn, `CCN(CC)c1ccc2cc(-c3cn4cc5ccccc5cc4n3)c(=O)oc2c1` came in with a photoluminescence quantum yield (in ClC(Cl)Cl) of 0.92.

As for `Cc1ccc2c(c1)C(C)(C)c1cc(C)ccc1N2c1ccc2c(c1)C(C)(C)c1cc(N3c4ccc(C)cc4C(C)(C)c4cc(C)ccc43)ccc1S2(=O)=O`, the photoluminescence quantum yield (in O=P(c1ccccc1)(c1ccccc1)c1ccccc1Oc1ccccc1P(=O)(c1ccccc1)c1ccccc1) came out at 0.73.

`COc1ccc(-n2nc(C#N)c(N3CCOCC3)n2)cc1` came in with a photoluminescence quantum yield (in CC#N) of 0.856.

Compound `CC(C)(C)c1cc(-c2c3cccc4c5cccc6c(-c7cc(C(C)(C)C)cc(C(C)(C)C)c7)c7cccc8c9cccc2c9c(c34)c(c65)c78)cc(C(C)(C)C)c1` yielded a photoluminescence quantum yield (in Cc1ccccc1) of 0.81.

Consider `CCOC(=O)c1cc(C(=O)O)nc2cc(OC)ccc12`, for which the photoluminescence quantum yield (in CCO) was found to be 0.15.

In turn, `COc1ccc(C2=C(c3ccc(OC)cc3)C(C)(C)c3sccc32)cc1` returned a photoluminescence quantum yield (in C1CCCCC1) of 0.02.

The compound `F[B-]1(F)N2C=CN=CC2=[N+]2[N+]1=Cc1c(-c3ccccc3)cc(-c3cccs3)n1[B-]2(F)F` registered a photoluminescence quantum yield (in ClCCl) of 0.45.

Turning to `CC(C)[Si](C#Cc1c2ccccc2c(C#C[Si](C(C)C)(C(C)C)C(C)C)c2nc3c(nc12)C1c2ccccc2C3c2ccccc21)(C(C)C)C(C)C`, the photoluminescence quantum yield (in CCCCCC) stood at 0.7.

Consider `C(=C\c1ccc(N(c2ccc(/C=C/c3ccc(-c4cc(-c5ccccc5)nc(-c5ccccc5)c4)cc3)cc2)c2ccc(/C=C/c3ccc(-c4cc(-c5ccccc5)nc(-c5ccccc5)c4)cc3)cc2)cc1)/c1ccc(-c2cc(-c3ccccc3)nc(-c3ccccc3)c2)cc1`, for which the photoluminescence quantum yield reads like this: (in C1CCOC1) 0.08; (in Cc1ccccc1) 0.14.

In the case of `CC1(C)CCc2c(c3ccccc3c3nc4c5c(c6ccccc6c4nc23)OC(C)(C)CC5)O1`, the photoluminescence quantum yield came to 0.38 (in C1CCCCC1); 0.34 (in C1CCOC1); 0.26 (in C1COCCO1); 0.61 (in CC#N); 0.53 (in CC(C)O); 0.31 (in CCCCCC). Besides, the photoluminescence quantum yield runs as follows: (in CN(C)C=O) 0.57; (in CO) 0.62; (in ClC(Cl)Cl) 0.43; (in c1ccccc1) 0.42.

Compound `c1ccc(N(c2ccccc2)c2ccc(-c3cncs3)cc2)cc1` gave a photoluminescence quantum yield (in CO) of 0.53.

On to `CCCCCCCCOc1ccc(C#Cc2ccc(C#Cc3ccc(OCCCCCCCC)c(OCCCCCCCC)c3)c3nc4c5ccccc5c5ccccc5c4nc23)cc1OCCCCCCCC`, for which the photoluminescence quantum yield runs as follows: (in C1CCOC1) 0.18; (in Cc1ccccc1) 0.19; (in ClCCl) 0.33.

`COc1ccc(C2=[N+]3C(=Nc4c(-c5cc(OC)c(OC)c(OC)c5)c(Br)c(-c5ccc(OC)cc5)n4[B-]3(F)F)C(c3cc(OC)c(OC)c(OC)c3)=C2Br)cc1` registered a photoluminescence quantum yield (in Cc1ccccc1) of 0.002.

Regarding `Cc1ccc(-[c+]2c3ccccc3oc3ccccc32)cc1`, the photoluminescence quantum yield (in CC#N) worked out at 0.014.

As to `N#C/C(=N/Nc1ccc(C#N)cc1)c1nc(-c2ccccc2)cs1`, the photoluminescence quantum yield was 0 (in CC#N); 0.0001 (in CCO); 0 (in CN(C)C=O); 0.0001 (in Cc1ccccc1); 0.0001 (in ClCCl).

For the setting “in c1cc(-c2cccc(-n3c4ccccc4c4ccccc43)c2)cc(-n2c3ccccc3c3ccccc32)c1”, `c1ccc(-c2nc(-c3ccccc3)nc(-c3ccc(-c4ccc5c(c4)C4(c6ccccc6-c6ccccc64)c4cc(-c6ccc(-c7nc(-c8ccccc8)nc(-c8ccccc8)n7)cc6)ccc4N5c4ccccc4)cc3)n2)cc1` had a photoluminescence quantum yield of 0.94.

Regarding `Cc1ccc(S(=O)(=O)/N=c2\oc3cccc4c5c(-c6ccccc6)oc6cccc(c(c2-c2ccccc2)c34)c65)cc1`, the photoluminescence quantum yield (in ClC(Cl)Cl) came to 0.64.

Under “in ClC(Cl)Cl”, `CN(C)c1ccc(-c2ccc(-c3cc(-c4ccccc4)c(-c4ccccc4)c(-c4ccccc4)c3-c3ccccc3)nc2)cc1` gave a photoluminescence quantum yield of 0.33.

Consider `CC(C)[Si](C#Cc1c2nsnc2c(C#C[Si](C(C)C)(C(C)C)C(C)C)c2nc3c(ccc4ccccc43)nc12)(C(C)C)C(C)C`, for which the photoluminescence quantum yield (in CCCCCC) was found to be 0.42.

Turning to `F[B-]1(F)n2c(cc3c2-c2ccccc2CC3)C(c2ccc(I)cc2)=C2C=C3CCc4ccccc4C3=[N+]21`, the photoluminescence quantum yield (in ClC(Cl)Cl) stood at 0.38.

`Cc1nc2c(c[n+]1C)CN1C(=O)N([C@H]3O[C@@H](CO)[C@H](O)[C@@H]3O)C=CC1=N2` had a photoluminescence quantum yield (in CC#N) of 0.99; a photoluminescence quantum yield (in CC(C)=O) of 0.94; a photoluminescence quantum yield (in CCCCO) of 0.12; a photoluminescence quantum yield (in CCCO) of 0.11; a photoluminescence quantum yield (in CCO) of 0.14; a photoluminescence quantum yield (in CO) of 0.14. Besides, the photoluminescence quantum yield is, setting by setting: (in O) 0.38; (in [2H]OC) 0.15; (in [2H]OCC) 0.14; (in [2H]O[2H]) 0.42.

Turning to `CCCCCc1ccc(-c2ccc(C#Cc3cc(C#Cc4ccc(-c5ccc(CCCCC)cc5)cc4)c4ccc5c(C(=O)c6ccccc6)cc(C#Cc6ccc(-c7ccc(CCCCC)cc7)cc6)c6ccc3c4c65)cc2)cc1`, where the note is “in ClCCl”, the photoluminescence quantum yield was determined as 0.51.

In turn, `CCCCC1(c2ccccc2)Nc2c(-c3ccc(N(C)C)cc3)ccc(-c3ccc(N(C)C)cc3)c2N=C1c1ccccc1` (stereo not drawn) had a photoluminescence quantum yield (in ClC(Cl)Cl) of 0.16.

As for `COc1c2ccccc2c(OC)c2c1c1ccc(C)cc1n2C`, the photoluminescence quantum yield came out at 0.4 (in C1CCCCC1), 0.42 (in CC#N), 0.34 (in CO) and 0.57 (in ClCCl).

For the setting “in CC#N”, `Cc1ccc(C#Cc2cc3ccccc3oc2=O)cc1` had a photoluminescence quantum yield of 0.73.

Consider `Cn1c(=O)cc(C(=O)c2ccccc2)c2sc(-c3ccc(C(F)(F)F)cc3)cc21`, for which the photoluminescence quantum yield by setting is: (in CC#N) 0.8; (in ClCCl) 0.82.

Take `Cc1ccc(OCc2cc(=O)oc3c2ccc2ccccc23)cc1`: the photoluminescence quantum yield runs as follows: (in C1CCOC1) 0.0561; (in C1COCCO1) 0.0665; (in CC#N) 0.0506; (in CC(C)=O) 0.0465; (in CCCCO) 0.0333; (in CCCO) 0.0312. The photoluminescence quantum yield runs as follows: (in CCO) 0.028; (in CCOC(C)=O) 0.0471; (in CN(C)C=O) 0.0576; (in CO) 0.0265; (in Cc1ccccc1) 0.0798; (in ClCCl) 0.0584.

In the case of `c1ccc(-c2cc3cc4ccccc4cc3p2-c2ccccc2)cc1` (stereo not drawn), the photoluminescence quantum yield (in ClCCl) was found to be 0.035.

On to `CCN(CC)c1ccc([N+]2=Cc3ccc4c5c(ccc4c3O[B-]2(c2c(F)c(F)c(F)c(F)c2F)c2c(F)c(F)c(F)c(F)c2F)C=[N+](c2ccc(N(CC)CC)cc2)[B-](c2c(F)c(F)c(F)c(F)c2F)(c2c(F)c(F)c(F)c(F)c2F)O5)cc1`, for which the photoluminescence quantum yield amounted to 0.33 (in Cc1ccccc1) and 0.1 (in ClCCl).

`COc1ccc(/C=C/c2ccncn2)cc1` showed a photoluminescence quantum yield (in ClCCl) of 0.01.

As to `c1ccc(-c2c3ccccc3c(-c3ccccc3)c3cc4ccccc4cc23)cc1`, the photoluminescence quantum yield (in ClCCl) was 0.97.

`CCCCc1cc(-c2cccc(COC)c2)oc1-c1cccc(-c2cc(CCCC)c(-c3cccc(-c4cc(CCCC)c(-c5cccc(-c6oc(-c7cccc(-c8oc(-c9cccc(-c%10oc(-c%11cccc(COC)c%11)cc%10CCCC)c9)cc8CCCC)c7)cc6CCCC)c5)o4)c3)o2)c1` registered a photoluminescence quantum yield (in ClC(Cl)Cl) of 0.54.

For the compound `Cc1ccc(C(=O)NN2C3=C(CC4=C2CCCC4=O)C(=O)CCC3)cc1`, the photoluminescence quantum yield is, setting by setting: (in C1CCOC1) 0.31; (in CC#N) 0.55; (in CC(C)=O) 0.32; (in CCCCCO) 0.5; (in CO) 0.4; (in ClC(Cl)Cl) 0.77. Also, the photoluminescence quantum yield (in ClCCl) was determined as 0.44.

Consider `Cc1cc2[nH]c3ccccc3c2c2[nH]c3ccccc3c12`, for which, where the note is “in ClCCl”, the photoluminescence quantum yield came out at 0.223.

Turning to `CC[N+]1(CC)CN2C(=N1)C(C(=O)O)=Cc1cc(OC)ccc12`, where the note is “in O”, the photoluminescence quantum yield worked out at 0.509.

These data come from the Deep4Chem optical property database.
